Among the data in patent US6759384B1, “Factor Xa inhibitors” (Aventis Pharmaceuticals Inc., priority 1994, dated 2004) are Ki, half-life and EC50 values, retold here.

One data set has as its target factor Xa. The following applies: background section; cited from earlier work.
The target of another data set is T1, human plasmin (Homo sapiens, UniProt P00747).
T1 construct: the enzyme was human plasmin (Kabi); purchased Kabi
The data set can be described thus: Plasmin chromogenic assay. It is filed as biochemical. The following applies: Table 2. How it is done:
(§1) The ability of a compound of the invention to inhibit factor Xa, thrombin, plasmin, elastase and trypsin was assessed by determining the concentration of YIR peptide that inhibits enzyme activity by 50% (IC50). Purified enzymes were used in chromogenic assays. To determine the inhibition constant, the IC50 value was corrected for competition with substrate using the formula:
(§2) Ki=IC50×(1/{1+((substrate concentration)/substrate Km)})
TBS-P buffer was used for this assay. The IC50 was determined as described in Example XXXVII.a., except that the substrate was S-2251 ((D)-Val-L-Leu-L-Lys-p-nitroanilide; Kabi) and the enzyme was human plasmin (Kabi). The enzyme concentration was 5 nM and the substrate concentration was 300 uM.

The target of another data set is T2, human factor Xa (Homo sapiens, UniProt P00742).
T2 construct: purchased Enzyme Research Laboratories, Inc; South Bend Ind
T2 sequence (P00742 235-488 limits assumed): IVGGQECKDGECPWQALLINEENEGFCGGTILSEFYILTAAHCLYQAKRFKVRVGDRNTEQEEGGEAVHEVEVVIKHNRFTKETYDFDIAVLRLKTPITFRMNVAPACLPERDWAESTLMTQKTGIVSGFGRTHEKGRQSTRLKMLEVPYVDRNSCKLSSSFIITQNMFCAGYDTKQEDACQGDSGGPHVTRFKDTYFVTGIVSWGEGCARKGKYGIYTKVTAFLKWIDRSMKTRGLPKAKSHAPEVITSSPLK
T2 sequence (P00742 41-179 partner limits assumed): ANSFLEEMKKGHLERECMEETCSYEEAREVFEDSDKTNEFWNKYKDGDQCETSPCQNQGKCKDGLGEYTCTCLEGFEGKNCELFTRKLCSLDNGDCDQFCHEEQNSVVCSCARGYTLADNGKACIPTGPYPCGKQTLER
Nature of the data set: Factor Xa chromogenic assay. It is filed as biochemical. How it is done:
as §1, §2
(Chen and Prusoff, Biochem. Pharmacol. 22:3099-[…] (1973), which is incorporated herein by reference).
TBS-P buffer (50 mM Tris-Cl, pH 7.8, 200 mM NaCl, 0.05% (w/v) PEG-8000, 0.02% (w/v) NaN3) was used for this assay. The IC50 was determined by combining in appropriate wells of a Costar half-area microtiter plate 25 μl human factor Xa (Enzyme Research Laboratories, Inc.; South Bend Ind.) in TBS-P; 40 μl 10% (v/v) DMSO in TBS-P (uninhibited control) or various concentrations of a peptide to be tested diluted in 10% (v/v) DMSO in TBS-P; and substrate S-2765 (Nα-benzyloxycarbonyl-D-Arg-Gly-L-Arg-p-nitroanilide; Kabi Pharmacia, Inc.; Franklin Ohio) in TBS-P.
The assays were performed by pre-incubating the peptide inhibitor plus enzyme for 10 min, then the assay was initiated by adding substrate to obtain a final volume of 100 μl. The initial velocity of chromogenic substrate hydrolysis was measured by the change in absorbance at 405 nm using a Bio-tek Instruments kinetic plate reader (Ceres UV900HDi) at 25° C. during the linear portion of the time course (usually 1-5 min after addition of substrate). The concentration of inhibitor that caused a 50% decrease in the rate of substrate hydrolysis was predicted by linear regression after plotting the relative rates of hydrolysis (compared to the uninhibited control) versus the log of the peptide concentration. The enzyme concentration was 0.5 nM and substrate concentration was 140 μM.

Data set [1] concerns the target T3, human neutrophil elastase (Homo sapiens, UniProt P08246).
T3 construct: purchased Athens Research and Technology, Inc; Athens Ga
T3 sequence (P08246 30-247 limits assumed): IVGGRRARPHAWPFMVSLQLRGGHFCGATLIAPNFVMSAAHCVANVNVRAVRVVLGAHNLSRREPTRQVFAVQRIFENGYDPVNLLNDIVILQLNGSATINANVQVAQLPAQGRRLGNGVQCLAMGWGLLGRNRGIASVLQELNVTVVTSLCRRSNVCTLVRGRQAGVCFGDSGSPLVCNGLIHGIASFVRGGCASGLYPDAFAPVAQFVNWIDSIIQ
Nature of the data set: Elastase chromogenic assay. It is filed as biochemical. The conditions noted are these: Table 2. How it is done: as §1, §2
Tris-Cl, pH 7.4, 300 mM NaCl, 2% (v/v) N-methyl-pyrrolidone, 0.01% (w/v) NaN3 buffer was used for this assay. The IC50 was determined as described in Example XXXVII.a., except that the substrate was succinyl-Ala-Ala-Ala-p-nitroanilide (Calbiochem-Nova Biochem Corp.; San Diego Calif.) and the enzyme was human neutrophil elastase (Athens Research and Technology, Inc.; Athens Ga.). The enzyme concentration was 75 nM and the substrate concentration was 600 μM.

A short description of data set [2]: Ex vivo dilute prothrombin time assay after iv administration to rabbits. The following applies: rabbit, in vivo, time at which approximately 50% of the initial anticoagulant activity remains in plasma, read-out: T1/2 Rabbit ex vivo. On the procedure: (§3) The compounds of the invention were assessed for their ability to inhibit factor Xa activity. Effectiveness of various compounds was assessed by the in vitro prothrombin time (PT) assay using pooled human donor plasma. An ex vivo assay also was used in which plasma was collected at various times after intravenous (iv) administration of a compound to rats and to rabbits or intraduodenal administration to rats and analyzed using the PT assay to determine plasma half-life. The PT assay was initiated with a thromboplastin dilution selected to obtain an extended and highly reproducible coagulation endpoint, referred to as the “dilute PT assay” as described below. Effectiveness of various compounds also was determined using an in vivo rat arteriovenous shunt model of thrombosis.
(§4) Test compound was administered iv either through the tail vein (rat) or ear vein (rabbit) following an approved protocol. One ml blood samples were removed at timed intervals after administration of a test compound from a cannulated carotid artery (rat) or auricular artery (rabbit). After centrifugation to obtain PPP, the plasma was immediately stored on ice or frozen.
(§5) For dilute prothrombin time determination, the plasma was prewarmed and assayed as described above. Percent inhibition was calculated from a thromboplastin dilution curve, which was run with each series of samples, and used to determine the time at which approximately 50% of the initial anticoagulant activity remains in the plasma (T1/2).

Data set [3] deals with pooled human platelet poor plasma. The data set can be described thus: In vitro dilute prothrombin time assay. The data set is classed as biochemical. The following applies: concentration giving 50% inhibition of coagulation, dilute PT. On the procedure: The compounds of the invention were assessed for their ability to inhibit factor Xa activity. Effectiveness of various compounds was assessed by the in vitro prothrombin time (PT) assay using pooled human donor plasma. An ex vivo assay also was used in which plasma was collected at various times after intravenous (iv) administration of a compound to rats and to rabbits or intraduodenal administration to rats and analyzed using the PT assay to determine plasma half-life. The PT assay was initiated with a thromboplastin dilution selected to obtain an extended and highly reproducible coagulation endpoint, referred to as the “dilute PT assay” as described below. Effectiveness of various compounds also was determined using an in vivo rat arteriovenous shunt model of thrombosis. […]
Alternatively, the dilute prothrombin time assay was conducted using the “research” mode on an Instrumentation Laboratories (IL) ACL3000-plus automated coagulation instrument (IL; Milan, Italy). […] During the assay, a 50 μl sample (plasma separated by centrifugation) was mixed with 100 μl thromboplastin reagent and nephelometric readings were taken over 169 sec. Coagulation time was determined from the maximal rate of change of light scatter calculated by the instrument. Inhibition is expressed as percent activity as determined by comparison with the calibration curve.

A short description of data set [4]: Ex vivo dilute prothrombin time assay after iv administration to rats. The conditions noted are these: rat, in vivo, time at which approximately 50% of the initial anticoagulant activity remains in plasma, read-out: T1/2 Rat ex vivo. How it is done:
as §3, §4, §5
Various compounds also were examined for anticoagulant activity using the ex vivo dilute prothrombin time assay following iv bolus administration of various doses in rats. […] The structures of all of the compounds listed in Table 5 were confirmed by MS and AA.

Another data set addresses T4, human thrombin (Homo sapiens, UniProt P00734).
T4 construct: purchased Enzyme Research Laboratories, Inc; South Bend Ind
The data set can be described thus: Thrombin chromogenic assay. The conditions noted are these: Table 2. It is filed as biochemical. On the procedure:
as §1, §2
TBS-P buffer was used for this assay. The IC50 was determined as described in Example XXXVII.a., except that the substrate was S-2366 (L-PyroGlu-L-Pro-L-Arg-p-nitroanilide; Kabi) and the enzyme was human thrombin (Enzyme Research Laboratories, Inc.; South Bend Ind.). The enzyme concentration was 1 nM and substrate concentration was 175 μM.

The target in data set [5] is T5, bovine pancreatic trypsin (Bos taurus, UniProt P00760).
T5 construct: purchased Sigma Type XIII, TPCK treated; host or cells: bovine pancreas
T5 sequence (P00760 24-246): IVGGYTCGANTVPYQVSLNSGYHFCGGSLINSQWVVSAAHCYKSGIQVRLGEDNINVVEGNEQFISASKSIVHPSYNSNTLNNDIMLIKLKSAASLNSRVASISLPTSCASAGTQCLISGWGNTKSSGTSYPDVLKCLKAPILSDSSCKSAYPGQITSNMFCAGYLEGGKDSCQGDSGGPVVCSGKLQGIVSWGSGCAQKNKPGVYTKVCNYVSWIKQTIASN
Nature of the data set: Trypsin chromogenic assay. The data set is classed as biochemical. The conditions noted are these: Table 2; * no significant inhibition at the highest concentration tested. How it is done:
as §1, §2
TBS-P buffer containing 10 mM CaCl2 was used for this assay. The IC50 determination was determined as described in Example XXXVII.a., except that the substrate was BAPNA (Benzoyl-L-Arg-p-nitroanilide; Sigma Chemical Co.; St. Louis Mo.) and the enzyme was bovine pancreatic trypsin (Type XIII, TPCK treated; Sigma). The enzyme concentration was 50 nM and the substrate concentration was 300 μM.

Counter-ions that a name gives are not always drawn. Like-named read-outs stand apart in the source and are kept apart here. Starred links: 1 amine or outer side, 2 acyl side, 3 side chain; linkers in the order of their positions; H or OH if unused. Non-standard residues stand in square brackets, D forms with d. Residues, ends and D or L forms follow the SMILES beside them. No end group written: not given here. *: point of attachment. X1 = CC(C)CN([C@@H](Cc1ccc(O)cc1)C(=O)[*:2])[*:1]; 2Nal = N[C@@H](Cc1ccc2ccccc2c1)C(=O)O; Chg = N[C@H](C(=O)O)C1CCCCC1; Tfa = O=C(C(F)(F)F)* A value given as a limit tells only on which side of the number the result lay.

T1 sequence (P00747 581-810 limits assumed): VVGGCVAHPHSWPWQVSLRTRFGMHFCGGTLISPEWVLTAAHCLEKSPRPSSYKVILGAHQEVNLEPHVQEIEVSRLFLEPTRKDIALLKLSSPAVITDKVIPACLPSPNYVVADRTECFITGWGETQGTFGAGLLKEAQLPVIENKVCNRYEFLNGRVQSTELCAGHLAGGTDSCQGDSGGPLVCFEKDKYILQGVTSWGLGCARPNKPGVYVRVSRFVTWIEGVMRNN
T1 sequence (P00747 97-580 partner limits assumed): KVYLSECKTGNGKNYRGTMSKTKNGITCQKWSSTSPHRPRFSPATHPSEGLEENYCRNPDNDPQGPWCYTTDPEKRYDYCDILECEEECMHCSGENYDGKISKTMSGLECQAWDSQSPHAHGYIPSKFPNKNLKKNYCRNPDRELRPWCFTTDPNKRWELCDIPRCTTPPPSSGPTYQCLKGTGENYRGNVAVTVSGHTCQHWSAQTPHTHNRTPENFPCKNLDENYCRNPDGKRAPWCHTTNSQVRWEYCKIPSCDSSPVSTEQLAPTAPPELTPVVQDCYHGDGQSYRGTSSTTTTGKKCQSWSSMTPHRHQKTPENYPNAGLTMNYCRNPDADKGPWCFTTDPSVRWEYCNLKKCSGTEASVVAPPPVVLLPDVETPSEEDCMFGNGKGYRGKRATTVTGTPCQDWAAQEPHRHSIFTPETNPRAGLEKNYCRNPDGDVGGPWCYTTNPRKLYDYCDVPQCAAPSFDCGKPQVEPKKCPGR

Regarding `N=C(N)c1ccc(C=C2CCCCC(=Cc3ccc(C(=N)N)cc3)C2=O)cc1` [2,7-bis-(4-amidinobenzylidene)-cycloheptanone, reference compound], the Ki on factor Xa is roughly 20 nM.
Take `CC[C@H](C)[C@H](NC(=O)[C@H](Cc1ccc(O)cc1)N(CC(C)C)C(C)=O)C(=O)N[C@@H](CCCNC(=N)N)C(=O)N[C@@H](CC(C)C)C(=O)N1CCC[C@H]1C(N)=O` [Ac-(iBu)Y-I-R-L-P, Ac-(iBu)Tyr-Ile-Arg-Leu-Pro-NH2] (Ac-[X1]IRLP-NH2): the Ki at human plasmin was greater than 200000 nM; on human factor Xa (Example XXXVI, read-out: Ki (inhibition of factor Xa activity)) it was 40 nM; in data set [1], greater than 100000 nM.
For `CC(=O)N[C@@H](Cc1ccc2ccccc2c1)C(=O)N[C@H](C(=O)N[C@@H](CCCNC(=N)N)C(=O)N[C@@H](CC(C)C)C(=O)N1CCC[C@H]1C(N)=O)C1CCCCC1` [Ac—Nal(2)—Chg—R—L—P—NH2, Ac-Nal(2)-Chg-Arg-Leu-Pro-NH2] (Ac-[2Nal][Chg]RLP-NH2), the figures for the half-life in [2] and in data set [4] were 5 min and 6 min, respectively. Moreover, in [3], a half-maximal response (EC50) required 140 nM.
For `CC(=O)N[C@@H](Cc1ccc(O)cc1)C(=O)N[C@H](C(=O)N[C@@H](CCCNC(=N)N)C(=O)N[C@@H](CC(C)C)C(=O)N1CCC[C@H]1C(N)=O)C1CCCCC1` [Ac—Y—Chg—R—L—P—NH2, Ac-Tyr-Chg-Arg-Leu-Pro-NH2] (Ac-Y[Chg]RLP-NH2), the half-life in data set [2] and in [4] was 5 min throughout. This molecule registered an EC50 in data set [3] of 225 nM.
`CC(=O)N[C@@H](Cc1ccc(O)cc1)C(=O)N[C@H](C(=O)N[C@@H](CCCNC(=N)N)C(N)=O)C1CCCCC1` [Ac—Y—Chg—R—NH2] (Ac-Tyr-[Chg]-Arg-NH2): the half-life in [2] and in [4] was 5 min each time.
On to `CC(C)C[C@H](NC(=O)[C@H](CCCNC(=N)N)NC(=O)[C@@H](NC(=O)[C@H](Cc1ccc(O)cc1)N(CC(C)C)C(=O)C(F)(F)F)C1CCCCC1)C(=O)N1CCC[C@H]1C(N)=O` [Tfa—(iBu)Y—Chg—R—L—P—NH2, Tfa-(iBu)Tyr-Chg-Arg-Leu-Pro-NH2] (Tfa-[X1][Chg]RLP-NH2), for which the half-life was 10 min in [2] and 15 min in [4].
As to “N-alpha-tosyl-Gly-p-amidinophenylalanine methyl ester [TENSTOP, reference compound]”, the Ki was greater than 200000 nM on human plasmin; 2000 nM on human factor Xa (Table 2, read-out: Ki Xa); 2000 nM on human thrombin; roughly 800 nM at factor Xa; greater than 200000 nM in data set [1].
Regarding “TAP: tick anticoagulant peptide, isolated from the tick Ornithodoros moubata, 60 amino acids (YNRLCIKPRDWIDECDSNEGGERAYFRNGKGGCDSFWICPEDHTGADYYSSYRDCFNACI; ends and bridges not checked; cysteine pairing not given here; UniProt P17726 1-60, looked up)”, the Ki on factor Xa is roughly 0.5 nM.
Take “YIRLAAET [Ac-Y-I-R-L-A-A-E-T, Ac-Y-I-R-L-A-A-E-T (SEQ ID NO:9)]”: the Ki at human factor Xa (Table 2, read-out: Ki Xa) was 1500 nM; in [5], greater than 200000 nM.

What is called Ki is a measure of affinity in units of concentration, obtained from inhibition or displacement. In general, EC50 refers to the midpoint of the concentration-response curve.
